According to US5610319A, “Compound useful as antiproliferative agents and GARFT inhibitors” (Agouron Pharmaceuticals, Inc., priority 1995, dated 1997):
pIC50: −log10 of the molar value.

Legend:
[1] = tested on: GARFT; conditions: cited from earlier work
[2] = tested on: L1210; test: In vitro growth inhibition, L1210, MTT, Example 2; format: cell-based; conditions: Mus musculus, Continuous (72-hour) exposure, mean IC50, read-out: IC50 Cell Culture L1210
Experimental: All cultures were maintained at 37° C., 5% air-CO2 in a humidified incubator.
Stock solutions of the inhibitors were prepared in 10 mM sodium bicarbonate in water and stored in 1 ml aliquots at -20° C. for cell culture experiments. Cell growth inhibition was measured by a modification of the method of Mosmann, J. Immunol. Methods 65 (1983), 55-63.
Mid-log phase cells of each cell line were diluted to 18,500 cells/ml in fresh RPMI growth medium (Mediatech, Washington, DC) supplemented with dialyzed fetal calf serum (Hyclone Laboratories Inc., Logan, Utah) and then aliquotted into columns 2 through 12 of 96-well microtiter plates. Column 1 was filled with the same volume ([…]) of fresh medium, without cells, for use as a blank. The plates were then placed in a 37° C., 5% air-CO2 incubator. After 1 to 4 hours, plates were removed from the incubator followed by addition of Compound (21) at 10×final concentration, […] in binary dilutions, to columns 12 to 4. […] The extent of metabolized MTT was measured spectrophotometrically at 540 nm on a Molecular Devices Vmax™ kinetic microplate reader. The concentration of drug required to reduce cell growth by 50% as measured by MTT metabolism was determined by interpolation between the O.D. (minus blank) immediately above and below 50% of control O.D. (minus blank). […]

[3] = tested on: 6C3HED lymphosarcoma; test: In vivo antitumor activity, 6C3HED lymphosarcoma; set-up: species or system C3H/He female mice; conditions: intraperitoneal, once daily for nine days; for % Inhibition: tumor mass day 11
Experimental: On day zero, 2 mm^2 trocar fragments of 6C3HED lymphosarcoma were implanted subcutaneously in the axillary region into groups of six C3H/He female mice. Starting on day 1, the test compound was administered intraperitoneally in 40% Encapsin given once daily for nine days. Control animals received identical treatment without test compound. The percentage inhibition given in Table 5 below was calculated by comparing the mass of the control tumors (receiving diluent only) on day 11 to those of animals receiving test compound.

[4] = tested on: C3H/BA mammary adenocarcinoma; test: In vivo antitumor activity, C3H/BA mammary adenocarcinoma; set-up: species or system C3H/He female mice; conditions: intraperitoneal, once daily for nine days, tumor mass day 14
Experimental: On day zero, 2 mm^2 trocar fragments of C3H/BA mammary adenocarcinoma were implanted subcutaneously in the axillary region into groups of six C3H/He female mice. Starting on day 1, the test compound was administered intraperitoneally in 40% Encapsin given once daily for nine days. Control animals received identical treatment without test compound. The percentage of inhibition was calculated by comparing the mass of the control tumors (receiving diluent only) on day 14 to those of animals receiving test compound.

Compound | GARFT inhibition [1] | pIC50 [2] | % Inhibition ([3]; 12.5 mg/kg) [%] | % Inhibition ([3]; 25 mg/kg) [%] | % Inhibition (given as toxic) ([3]; 50 mg/kg, day 11) | % Inhibition ([4]; 5 mg/kg) [%] | % Inhibition ([4]; 10 mg/kg) [%] | % Inhibition ([4]; 20 mg/kg) [%]
Nc1nc2c(c(=O)[nH]1)CC(CCc1ccc(C(=O)N[C@@H](CCC(=O)O)C(=O)O)cc1)CN2 (some centres unmarked) [5,10-dideazatetrahydrofolic acid] | specific tight binding inhibitor of GARFT |  |  |  |  |  |  | 
Nc1nc2c(c(=O)[nH]1)SC(CCc1ccc(C(=O)N[C@@H](CCC(=O)O)C(=O)O)s1)CN2 (stereo partly drawn) [Compound 21, 4-[2-(2-Amino-4-oxo-4,6,7,8-tetrahydro-3H-pyrimido[5,4-6][1,4]thiazin-6-yl)-ethyl]-2,5-thienoylamino-L-glutamic acid] |  | 7.80 | 100 | 100 | toxic | 16 | 84 | 100
